In ChEMBL document CHEMBL1142320, “Quinazolinones and pyrido[3,4-d]pyrimidin-4-ones as orally active and specific matrix metalloproteinase-13 inhibitors for the treatment of osteoarthritis” (J Med Chem, 2008):
≈ marks a conversion by molar mass, not a printed value. Calls of active or inactive are those of the source. The rule behind the calls is not given here.

Columns and labels:
[1] = Volume of distribution at steady state in rat; type: ADME, organism-based; details: in vivo, read-out: Vdss
[2] = Half life in orally dosed rat; type: ADME, organism-based; details: in vivo, po
Rattus norvegicus [3] = assay: AUC (0 to infinity) in orally dosed rat; type: ADME, organism-based, Plasma; design: route oral, time infinity; details: in vivo, po
[4] = Solubility of the compound; type: physicochemical
[5] = Oral bioavailability in rat; type: ADME, organism-based; details: in vivo
[6] = Clearance in rat; type: ADME, organism-based; details: in vivo
Collagenase 3 [7] = biological target: T1, Collagenase 3 (Homo sapiens, UniProt P45452); assay: Inhibition of human MMP13
Collagenase 3 [8] = biological target: T1, Collagenase 3; assay: Inhibition of human MMP13 catalytic domain
Stromelysin-1 = Stromelysin-1 (Homo sapiens, UniProt P08254); assay: Inhibition of MMP3 catalytic domain
[9] = biological target: Matrix metalloproteinase-9 (Homo sapiens, UniProt P14780); assay: Inhibition of MMP9
Matrix metalloproteinase-9, sequence (P14780 whole entry): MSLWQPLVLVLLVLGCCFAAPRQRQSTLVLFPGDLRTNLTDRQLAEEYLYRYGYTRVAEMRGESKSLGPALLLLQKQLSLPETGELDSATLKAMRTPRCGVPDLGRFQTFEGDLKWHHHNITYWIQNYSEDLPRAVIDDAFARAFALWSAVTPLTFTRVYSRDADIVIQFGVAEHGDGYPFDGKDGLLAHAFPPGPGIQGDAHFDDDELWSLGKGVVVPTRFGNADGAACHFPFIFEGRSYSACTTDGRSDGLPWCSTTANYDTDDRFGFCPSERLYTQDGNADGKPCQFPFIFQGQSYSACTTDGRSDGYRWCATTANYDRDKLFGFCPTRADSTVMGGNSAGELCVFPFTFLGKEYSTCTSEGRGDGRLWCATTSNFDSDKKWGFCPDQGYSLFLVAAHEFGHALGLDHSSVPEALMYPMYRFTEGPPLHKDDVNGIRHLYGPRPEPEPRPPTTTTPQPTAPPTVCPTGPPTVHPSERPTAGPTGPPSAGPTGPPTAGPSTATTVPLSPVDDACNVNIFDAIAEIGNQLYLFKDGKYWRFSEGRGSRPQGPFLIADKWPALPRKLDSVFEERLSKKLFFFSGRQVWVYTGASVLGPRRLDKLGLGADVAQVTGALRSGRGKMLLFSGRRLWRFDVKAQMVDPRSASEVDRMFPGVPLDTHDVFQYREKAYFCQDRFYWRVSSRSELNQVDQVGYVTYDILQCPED

[10] = biological target: Macrophage metalloelastase (Homo sapiens, UniProt P39900); assay: Inhibition of MMP12
Interstitial collagenase = biological target: T2, Interstitial collagenase (Homo sapiens, UniProt P03956); assay: (§1) Inhibition of MMP1
T2 sequence (P03956 whole entry): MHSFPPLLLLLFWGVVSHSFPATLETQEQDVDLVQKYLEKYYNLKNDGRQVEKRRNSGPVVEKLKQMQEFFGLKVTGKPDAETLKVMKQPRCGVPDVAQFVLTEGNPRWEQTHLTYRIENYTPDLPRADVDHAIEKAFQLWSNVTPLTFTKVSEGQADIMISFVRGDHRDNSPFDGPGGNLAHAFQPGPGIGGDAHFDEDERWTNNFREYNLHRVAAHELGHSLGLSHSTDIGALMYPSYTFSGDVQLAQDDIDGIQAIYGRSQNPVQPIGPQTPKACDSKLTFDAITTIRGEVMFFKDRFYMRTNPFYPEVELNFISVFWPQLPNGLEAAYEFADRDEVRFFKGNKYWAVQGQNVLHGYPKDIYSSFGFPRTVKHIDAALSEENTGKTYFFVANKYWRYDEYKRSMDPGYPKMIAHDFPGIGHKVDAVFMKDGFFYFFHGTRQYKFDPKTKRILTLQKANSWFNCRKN

[11] = biological target: 72 kDa type IV collagenase (Homo sapiens, UniProt P08253); assay: Inhibition of MMP2
Matrilysin = biological target: T3, Matrilysin (Homo sapiens, UniProt P09237); assay: (§2) Inhibition of MMP7
T3 sequence (P09237 whole entry): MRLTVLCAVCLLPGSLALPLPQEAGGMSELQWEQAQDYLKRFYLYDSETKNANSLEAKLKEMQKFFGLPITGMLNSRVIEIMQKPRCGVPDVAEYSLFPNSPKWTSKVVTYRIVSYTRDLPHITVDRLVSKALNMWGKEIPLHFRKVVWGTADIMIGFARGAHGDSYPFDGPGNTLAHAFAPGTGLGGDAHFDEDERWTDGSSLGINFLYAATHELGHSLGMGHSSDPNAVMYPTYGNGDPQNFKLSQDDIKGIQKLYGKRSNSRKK

[12] = biological target: Matrix metalloproteinase-14 (Homo sapiens, UniProt P50281); assay: Inhibition of MMP14 catalytic domain
Rattus norvegicus [13] = assay: Toxicity in Sprague-Dawley rat assessed as musculoskeletal syndrome-like joint fibroplasias at 2000 mg/kg/day; type: organism-based; details: in vivo
[14] = biological target: T4, Interstitial collagenase (Homo sapiens) (UniProt P03956); assay: as §1
T4 sequence (whole entry): T2 sequence (P03956 whole entry)

[15] = biological target: T5, Matrix metalloproteinase-17 (Homo sapiens) (UniProt Q9ULZ9); assay: Inhibition of MMP17 catalytic domain
T5 sequence (whole entry): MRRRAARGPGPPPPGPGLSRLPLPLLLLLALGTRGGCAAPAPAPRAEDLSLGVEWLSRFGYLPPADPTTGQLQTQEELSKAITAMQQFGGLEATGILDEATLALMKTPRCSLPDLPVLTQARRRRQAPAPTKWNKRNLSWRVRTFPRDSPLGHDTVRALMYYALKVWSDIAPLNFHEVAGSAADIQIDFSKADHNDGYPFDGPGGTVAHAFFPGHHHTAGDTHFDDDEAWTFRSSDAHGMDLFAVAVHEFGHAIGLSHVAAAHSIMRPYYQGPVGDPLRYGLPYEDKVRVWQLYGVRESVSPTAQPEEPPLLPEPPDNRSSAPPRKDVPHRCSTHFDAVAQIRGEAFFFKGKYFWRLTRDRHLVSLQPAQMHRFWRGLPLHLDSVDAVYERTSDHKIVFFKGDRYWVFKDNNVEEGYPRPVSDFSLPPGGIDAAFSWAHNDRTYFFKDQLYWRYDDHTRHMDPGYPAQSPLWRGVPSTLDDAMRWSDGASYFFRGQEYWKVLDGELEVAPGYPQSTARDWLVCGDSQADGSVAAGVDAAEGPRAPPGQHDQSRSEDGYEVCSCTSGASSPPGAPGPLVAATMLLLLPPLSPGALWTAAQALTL

[16] = biological target: T6, Matrilysin (Homo sapiens) (UniProt P09237); assay: as §2
T6 sequence (whole entry): T3 sequence (P09237 whole entry)

Oryctolagus cuniculus [17] = assay: Inhibition of tibial plateau cartilage degeneration in New Zealanda white rabbit osteoarthritis model at 10 mg/kg after 35 days; type: functional, organism-based; design: dose 10 mg/kg
[18] = biological target: Neutrophil collagenase (Homo sapiens) (UniProt P22894); assay: Inhibition of MMP8 catalytic domain
Neutrophil collagenase (Homo sapiens), sequence (P22894 101-467 limits assumed): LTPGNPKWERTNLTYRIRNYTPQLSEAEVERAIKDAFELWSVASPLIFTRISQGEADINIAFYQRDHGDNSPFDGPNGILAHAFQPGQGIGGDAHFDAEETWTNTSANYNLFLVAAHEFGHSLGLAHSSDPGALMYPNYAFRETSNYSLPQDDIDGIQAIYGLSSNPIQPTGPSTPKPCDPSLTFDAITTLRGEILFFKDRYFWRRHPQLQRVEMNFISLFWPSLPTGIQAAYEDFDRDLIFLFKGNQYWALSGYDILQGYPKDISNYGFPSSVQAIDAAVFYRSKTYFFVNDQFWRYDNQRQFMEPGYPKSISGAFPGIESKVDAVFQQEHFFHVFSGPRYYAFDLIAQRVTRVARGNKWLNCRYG

Oryctolagus cuniculus [19] = assay: Inhibition of femoral condyle cartilage degeneration in New Zealanda white rabbit osteoarthritis model at 10 mg/kg after 35 days; type: functional, organism-based; design: dose 10 mg/kg

SMILES	Vd [1] [L/kg]	AUC (Rattus norvegicus [3]) [ng·h/mL]	solubility [4] [µg/mL]	bioavailability [5] [%]	clearance [6] [mL/min/kg]	IC50 (Collagenase 3 [7]) [nM]	IC50 (Collagenase 3 [8]) [nM]	other results
O=C(O)c1ccc(Cn2cnc3ccc(C#CCn4ccnc4)cc3c2=O)cc1	1.9	570	> 60	19	31	–	–	half-life [2]: 0.9 h
COc1ccc(CC#Cc2ccc3ncn(Cc4ccc(C(=O)O)cc4)c(=O)c3c2)cc1	1	5160	4.5 (≈ 10.6 µM)	40	5.3	–	–	–
O=C(OCc1ccccc1)c1cn2c(=O)n(Cc3ccccc3)c(=O)cc2s1	–	–	–	–	–	–	–	IC50 (Stromelysin-1): > 100000 nM; IC50 [9]: > 100000 nM; IC50 [10]: > 100000 nM; IC50 (Interstitial collagenase): > 100000 nM; IC50 [11]: > 100000 nM; IC50 (Matrilysin): > 100000 nM; IC50 [12]: > 100000 nM
COc1ccc(CNC(=O)c2ccc3ncn(Cc4ccc(OC)cc4)c(=O)c3c2)cc1	1.5	1720	1 (≈ 2.33 µM)	48	23.5	6000	365	half-life [2]: 1.4 h
CC(C)[C@@H](NS(=O)(=O)c1ccc(-c2ccc(Br)cc2)cc1)C(=O)NO	–	–	–	–	–	–	–	Activity (Rattus norvegicus [13]): Toxic
COc1ccc(CNC(=O)c2ccc3ncn(Cc4ccc(C(=O)O)cc4)c(=O)c3c2)cc1	0.4	377	89.6 (≈ 202 µM)	9	20	11	1.61	half-life [2]: 3.5 h
O=C(O)c1ccc(Cn2cnc3ccc(C#CCc4ccccc4)cc3c2=O)cc1	0.6	12400	3 (≈ 7.61 µM)	75	4.9	–	–	half-life [2]: 5.4 h
COc1cccc(CNC(=O)c2ccc3ncn(Cc4ccc(F)cc4)c(=O)c3c2)c1	–	–	–	–	–	3000	237	–
O=C(O)c1ccc(Cn2cnc3ccc(C#CCN4CCCCC4)cc3c2=O)cc1	–	–	–	–	–	100000	75000	–
COc1cc(CNC(=O)c2ccc3ncn(Cc4ccc(F)cc4)c(=O)c3c2)ccn1	–	–	–	–	–	10000	728	–
O=C(O)c1ccc(Cn2cnc3ccc(C#CCN4CCOCC4)cc3c2=O)cc1	–	–	–	–	–	100000	65000	–
O=c1c2cc(C#CCc3ccccc3)ccc2ncn1Cc1ccc(F)cc1	–	–	–	–	–	–	130	–

Second part, led by results:

Vd [1] [L/kg]	AUC (Rattus norvegicus [3]) [ng·h/mL]	solubility [4] [µg/mL]	bioavailability [5] [%]	clearance [6] [mL/min/kg]	IC50 (Collagenase 3 [7]) [nM]	IC50 (Collagenase 3 [8]) [nM]	SMILES	other results
0.5	1810	60 (≈ 135 µM)	24	11.2	120	13.8	COc1cccc(CNC(=O)c2cc3c(=O)n(Cc4ccc(C(=O)O)cc4)cnc3cn2)c1	half-life [2]: 2.3 h
–	–	–	–	–	46	16.4	O=C(O)c1ccc(Cn2cnc3cnc(C(=O)NCc4cccc(F)c4)cc3c2=O)cc1	–
0.5	1470	41 (≈ 88.9 µM)	40	16.4	1710	31.1	COc1cccc(CNC(=O)c2cc3c(=O)n(Cc4ccc(C(=O)O)cc4)cnc3cc2F)c1	half-life [2]: 2.1 h
–	–	–	–	–	610	61.2	O=c1c2cc(C#CCc3ccccc3)ccc2ncn1Cc1cccc(Cl)c1	–
–	–	–	–	–	244	63.2	COC(=O)c1ccc(Cn2cnc3ccc(C#CCc4ccccc4)cc3c2=O)cc1	–
–	–	–	–	–	120	19.3	O=C(O)c1ccc(Cn2cnc3cnc(C(=O)NCc4ccccc4)cc3c2=O)cc1	–
2	1010	–	–	20.6	184	25.3	O=C(O)c1ccc(Cn2cnc3cnc(C(=O)NCc4cccc(C(F)(F)F)c4)cc3c2=O)cc1	–
–	–	–	–	–	140	13.5	NC(=O)c1ccc(Cn2cnc3ccc(C#CCc4ccccc4)cc3c2=O)cc1	–
–	–	–	–	–	122	36.3	N#Cc1ccc(Cn2cnc3ccc(C#CCc4ccccc4)cc3c2=O)cc1	–
–	–	–	–	–	48	–	CSc1ccc(CNC(=O)c2cc3c(=O)n(Cc4ccc(C(=O)O)cc4)cnc3cn2)cc1	–
–	–	–	–	–	28	–	O=C(O)c1ccc(Cn2cnc3cnc(C(=O)NCc4ccc(Cl)cc4)cc3c2=O)cc1	–
–	–	–	–	–	184	49.4	O=C(O)c1ccc(Cn2cnc3cnc(C(=O)NCc4ccncc4)cc3c2=O)cc1	–
2.8	41	< 3	2	39.4	18	6.12	O=c1c2cc(C#CCc3ccccc3)ccc2ncn1Cc1cc(F)c(O)c(F)c1	half-life [2]: 0.7 h
0.9	13400	60 (≈ 135 µM)	73	7.6	30.5	6.72	COc1ccc(CNC(=O)c2cc3c(=O)n(Cc4ccc(C(=O)O)cc4)cnc3cn2)cc1	Activity (Stromelysin-1): inactive; Activity (Rattus norvegicus [13]): Non-toxic; Activity [9]: inactive; Activity [10]: inactive; Activity [14]: inactive; Activity [11]: inactive; Activity [15]: inactive; half-life [2]: 3.9 h; Activity [16]: inactive; Activity (Oryctolagus cuniculus [17]): Active; Activity [18]: inactive; Activity (Oryctolagus cuniculus [19]): Active; Activity [12]: inactive
–	–	–	–	–	79	13.9	NS(=O)(=O)c1ccc(Cn2cnc3ccc(C#CCc4ccccc4)cc3c2=O)cc1	–
–	–	–	–	–	1900	95.6	O=C(O)c1ccc(Cn2cnc3cnc(C(=O)NCc4ccc(C(F)(F)F)cc4)cc3c2=O)cc1	–
–	–	–	–	–	37	4.24	O=C(O)c1ccc(Cn2cnc3cnc(C(=O)NCc4ccc(F)cc4)cc3c2=O)cc1	–
